Measurements as given in US20240166635A1, “AMINOHETEROARYL KINASE INHIBITORS” (Anrui Biomedical Technology (Guangzhou) Co.,Ltd., priority 2020, published 2024).

Columns and labels:
Assay type in all cases: biochemical
[1] = target: CDK4/Cyclin D1 (Homo sapiens (Human), UniProt P11802); assay: CDK4/CyclinD1 kinase inhibitory activity (Caliper mobility shift)
[2] = target: CDK6/CyclinD1 (Homo sapiens (Human), UniProt Q00534); assay: CDK6/CyclinD1 kinase inhibitory activity (Caliper mobility shift); details: read-out: CDK6/Cyclin D1 IC50
[3] = target: CDK1/CyclinB (Homo sapiens (Human), UniProt P06493); assay: CDK1/CyclinB kinase inhibitory activity (Caliper mobility shift); details: read-out: CDK1/Cyclin B1 IC50
[4] = target: CDK9/CyclinT1 (Homo sapiens (Human), UniProt P50750); assay: CDK9/CyclinT1 kinase inhibitory activity (Caliper mobility shift); details: read-out: CDK9/Cyclin T1 IC50
[5] = target: CDK2/CyclinE1 (Homo sapiens (Human), UniProt P24941); assay: CDK2/CyclinE1 kinase inhibitory activity (Caliper mobility shift); details: for IC50: read-out: CDK2/Cyclin El IC50
[6] = target: CDK7/CyclinH/MAT1 (Homo sapiens (Human), UniProt P50613); assay: CDK7/CyclinH/MAT1 kinase inhibitory activity (Caliper mobility shift)
Sequence of CDK7/CyclinH/MAT1 (P50613 whole entry): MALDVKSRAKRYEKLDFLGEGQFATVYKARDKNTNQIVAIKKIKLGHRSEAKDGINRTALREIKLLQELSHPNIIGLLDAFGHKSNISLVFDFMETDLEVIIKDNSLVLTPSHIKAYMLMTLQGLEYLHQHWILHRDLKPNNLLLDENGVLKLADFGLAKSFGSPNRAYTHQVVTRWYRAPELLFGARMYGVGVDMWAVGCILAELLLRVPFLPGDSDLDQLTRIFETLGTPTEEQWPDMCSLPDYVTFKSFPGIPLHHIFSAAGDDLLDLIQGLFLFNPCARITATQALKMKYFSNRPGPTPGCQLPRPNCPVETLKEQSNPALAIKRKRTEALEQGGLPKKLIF
Sequence of CDK7/CyclinH/MAT1 (P51946 whole entry partner): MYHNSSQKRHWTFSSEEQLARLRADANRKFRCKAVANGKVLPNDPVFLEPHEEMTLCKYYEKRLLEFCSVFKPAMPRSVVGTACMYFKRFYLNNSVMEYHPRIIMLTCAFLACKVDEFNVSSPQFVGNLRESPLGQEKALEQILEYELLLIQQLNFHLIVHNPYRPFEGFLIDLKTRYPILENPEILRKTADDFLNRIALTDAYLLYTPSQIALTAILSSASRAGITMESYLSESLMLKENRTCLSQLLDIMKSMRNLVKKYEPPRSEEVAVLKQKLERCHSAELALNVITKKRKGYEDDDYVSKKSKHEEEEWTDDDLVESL
Sequence of CDK7/CyclinH/MAT1 (P51948 whole entry partner): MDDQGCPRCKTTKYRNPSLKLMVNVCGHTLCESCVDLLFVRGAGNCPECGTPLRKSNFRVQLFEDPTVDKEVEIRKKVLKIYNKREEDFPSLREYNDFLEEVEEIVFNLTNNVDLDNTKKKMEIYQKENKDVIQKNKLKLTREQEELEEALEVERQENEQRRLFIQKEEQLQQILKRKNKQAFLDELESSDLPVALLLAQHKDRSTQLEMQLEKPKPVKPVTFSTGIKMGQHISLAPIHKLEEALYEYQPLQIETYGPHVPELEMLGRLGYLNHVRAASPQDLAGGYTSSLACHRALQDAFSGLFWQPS

Sequence of CDK6/CyclinD1 (Q00534 whole entry): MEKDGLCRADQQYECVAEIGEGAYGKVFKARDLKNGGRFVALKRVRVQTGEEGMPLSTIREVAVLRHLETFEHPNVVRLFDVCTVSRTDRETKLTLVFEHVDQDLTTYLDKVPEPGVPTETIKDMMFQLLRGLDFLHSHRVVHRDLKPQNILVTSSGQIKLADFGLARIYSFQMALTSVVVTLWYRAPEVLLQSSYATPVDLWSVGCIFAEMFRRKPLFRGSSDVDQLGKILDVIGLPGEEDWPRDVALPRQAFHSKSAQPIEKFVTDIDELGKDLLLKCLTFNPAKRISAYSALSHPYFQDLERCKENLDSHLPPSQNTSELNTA
Sequence of CDK6/CyclinD1 (P24385 whole entry partner): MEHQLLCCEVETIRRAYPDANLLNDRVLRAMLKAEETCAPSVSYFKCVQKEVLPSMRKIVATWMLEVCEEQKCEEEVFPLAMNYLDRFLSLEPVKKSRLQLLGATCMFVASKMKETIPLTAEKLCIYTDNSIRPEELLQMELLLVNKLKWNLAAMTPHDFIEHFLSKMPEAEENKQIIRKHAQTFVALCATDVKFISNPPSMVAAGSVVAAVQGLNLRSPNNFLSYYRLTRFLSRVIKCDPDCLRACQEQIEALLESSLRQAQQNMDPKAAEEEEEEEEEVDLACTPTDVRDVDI
Sequence of CDK9/CyclinT1 (P50750 whole entry): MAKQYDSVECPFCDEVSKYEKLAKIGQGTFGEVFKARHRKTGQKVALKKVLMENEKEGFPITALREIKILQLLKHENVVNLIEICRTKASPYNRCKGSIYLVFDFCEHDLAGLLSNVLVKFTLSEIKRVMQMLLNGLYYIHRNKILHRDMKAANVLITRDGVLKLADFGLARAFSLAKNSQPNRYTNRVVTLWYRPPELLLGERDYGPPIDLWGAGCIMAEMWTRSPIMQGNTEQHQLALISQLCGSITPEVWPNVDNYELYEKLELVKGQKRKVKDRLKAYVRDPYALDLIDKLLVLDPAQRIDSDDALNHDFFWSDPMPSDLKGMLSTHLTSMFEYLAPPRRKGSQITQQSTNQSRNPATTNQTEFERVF
Sequence of CDK9/CyclinT1 (O60563 whole entry partner): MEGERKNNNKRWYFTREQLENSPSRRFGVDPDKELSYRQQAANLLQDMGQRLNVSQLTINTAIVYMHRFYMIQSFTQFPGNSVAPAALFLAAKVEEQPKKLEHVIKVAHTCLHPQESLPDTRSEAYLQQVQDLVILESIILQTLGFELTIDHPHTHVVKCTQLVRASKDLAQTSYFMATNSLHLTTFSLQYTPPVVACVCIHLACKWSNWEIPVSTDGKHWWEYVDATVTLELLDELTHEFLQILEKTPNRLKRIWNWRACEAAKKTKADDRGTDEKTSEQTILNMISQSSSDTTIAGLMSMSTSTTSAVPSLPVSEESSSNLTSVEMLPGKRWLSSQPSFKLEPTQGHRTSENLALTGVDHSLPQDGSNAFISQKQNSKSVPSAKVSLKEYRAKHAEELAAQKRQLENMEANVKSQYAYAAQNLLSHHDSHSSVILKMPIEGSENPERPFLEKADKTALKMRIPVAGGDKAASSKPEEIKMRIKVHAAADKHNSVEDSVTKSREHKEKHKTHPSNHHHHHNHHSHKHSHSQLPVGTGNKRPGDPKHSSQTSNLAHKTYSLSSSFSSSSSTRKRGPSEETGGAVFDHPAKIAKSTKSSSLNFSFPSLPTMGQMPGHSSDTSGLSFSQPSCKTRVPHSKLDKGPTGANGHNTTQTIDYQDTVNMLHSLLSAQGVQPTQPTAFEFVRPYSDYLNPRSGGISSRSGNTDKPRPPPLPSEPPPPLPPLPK
Sequence of CDK4/Cyclin D1 (P11802 whole entry): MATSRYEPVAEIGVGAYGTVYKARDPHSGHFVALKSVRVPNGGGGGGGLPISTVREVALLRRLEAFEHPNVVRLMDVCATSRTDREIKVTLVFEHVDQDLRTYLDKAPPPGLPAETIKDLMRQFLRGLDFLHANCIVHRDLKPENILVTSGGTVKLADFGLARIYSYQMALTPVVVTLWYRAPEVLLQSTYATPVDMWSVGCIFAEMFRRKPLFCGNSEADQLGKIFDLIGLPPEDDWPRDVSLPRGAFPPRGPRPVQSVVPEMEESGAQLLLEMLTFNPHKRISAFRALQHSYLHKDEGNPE
Sequence of CDK4/Cyclin D1 (P24385 whole entry partner): as the sequence (P24385 whole entry partner) above
Sequence of CDK1/CyclinB (P06493 whole entry): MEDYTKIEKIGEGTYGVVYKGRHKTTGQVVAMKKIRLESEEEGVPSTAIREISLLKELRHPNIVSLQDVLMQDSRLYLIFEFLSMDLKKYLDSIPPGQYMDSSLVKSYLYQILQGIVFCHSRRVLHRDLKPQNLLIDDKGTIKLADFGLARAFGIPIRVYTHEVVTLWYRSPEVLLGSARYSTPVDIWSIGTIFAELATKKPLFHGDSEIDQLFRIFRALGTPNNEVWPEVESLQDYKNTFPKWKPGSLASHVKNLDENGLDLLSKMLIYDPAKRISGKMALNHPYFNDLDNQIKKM
Sequence of CDK1/CyclinB (P14635 whole entry partner): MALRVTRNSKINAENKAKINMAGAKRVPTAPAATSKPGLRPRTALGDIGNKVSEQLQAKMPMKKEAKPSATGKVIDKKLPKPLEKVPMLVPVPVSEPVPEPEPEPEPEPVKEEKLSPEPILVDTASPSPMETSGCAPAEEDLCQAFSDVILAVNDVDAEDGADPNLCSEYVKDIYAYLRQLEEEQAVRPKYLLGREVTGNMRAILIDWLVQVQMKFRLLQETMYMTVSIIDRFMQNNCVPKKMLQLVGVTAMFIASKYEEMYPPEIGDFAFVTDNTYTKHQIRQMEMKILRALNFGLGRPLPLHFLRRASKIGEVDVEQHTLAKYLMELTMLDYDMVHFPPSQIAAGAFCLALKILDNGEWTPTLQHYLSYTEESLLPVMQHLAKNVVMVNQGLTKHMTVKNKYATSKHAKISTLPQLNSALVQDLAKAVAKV

| IC50 [1] [nM] | IC50 [2] [nM] | IC50 [3] [nM] | IC50 [4] [nM] | IC50 [5] [nM] | IC50 [6] [nM] | selectivity over CDK1 ([5]; inhibiting CDK2 over CDK1) | Compound |
| --- | --- | --- | --- | --- | --- | --- | --- |
| 10 to 100 | < 10 | 10 to 100 | 100 to 1000 | < 10 | 100 to 1000 | – | CC(C)CS(=O)(=O)N1CCC(Nc2ncc(C#N)c(OC3CCCC3(C)O)n2)CC1 (single isomer, unassigned) [Example 39a] |
| 10 to 100 | < 10 | 10 to 100 | 100 to 1000 | < 10 | 10 to 100 | – | C[C@]1(O)CC(F)(F)C[C@H]1Oc1nc(NC2CCN(S(C)(=O)=O)CC2)ncc1C#N (relative stereo) [Example 4a, cis-4-((4,4-difluoro-2-hydroxy-2-methylcyclopentyl)oxy)-2-((1-(methylsulfonyl)piperidin-4-yl)amino)pyrimidine-5-carbonitrile] |
| 100 to 1000 | 100 to 1000 | 10 to 100 | 100 to 1000 | < 10 | 100 to 1000 | – | [2H]C([2H])([2H])NS(=O)(=O)c1ccc(Nc2ncc(Cl)c(OC3COCC3(C)O)n2)cc1 (single isomer, unassigned) [Example 140a] |
| 100 to 1000 | 100 to 1000 | 100 to 1000 | ≥ 1000 | < 10 | ≥ 1000 | – | CNS(=O)(=O)c1ccc(Nc2ncc(C#N)c(OC3CCC[C@H]3O)n2)cc1 (mixture of isomers) [Example 26] |
| 10 to 100 | 10 to 100 | 10 to 100 | 100 to 1000 | < 10 | 10 to 100 | – | CS(=O)(=O)N1CCC(Nc2ncc(Br)c(OC3CCCCCC3O)n2)CC1 (single isomer, unassigned) [Example 145b] |
| 10 to 100 | 10 to 100 | < 10 | 100 to 1000 | < 10 | 10 to 100 | – | CNS(=O)(=O)c1ccc(Nc2ncc(C#N)c(OC3CCCC3(C)O)n2)cc1 (single isomer, unassigned) [Example 34a] |
| < 10 | 10 to 100 | 10 to 100 | 100 to 1000 | < 10 | ≥ 1000 | – | CNS(=O)(=O)N1CCC(Nc2ncc(C#N)c(OCC3(C)CCCC3)n2)CC1 [Example 55] |
| < 10 | 10 to 100 | < 10 | 100 to 1000 | < 10 | 100 to 1000 | – | Cn1cc(S(=O)(=O)N2CCC(Nc3ncc(C#N)c(OCC4(C)CCC4)n3)CC2)cn1 [Example 60] |
| < 10 | 10 to 100 | 10 to 100 | 100 to 1000 | < 10 | 100 to 1000 | – | COCCS(=O)(=O)N1CCC(Nc2ncc(C#N)c(OCC3(C)CCCC3)n2)CC1 [Example 58] |
| 10 to 100 | 10 to 100 | 10 to 100 | 10 to 100 | < 10 | ≥ 1000 | – | N#Cc1cnc(Nc2ccc(S(N)(=O)=O)cc2)nc1N1CCCCCC1 [Example 68] |
| 10 to 100 | 10 to 100 | < 10 | 10 to 100 | < 10 | 10 to 100 | – | CC1(O)CCCC1Oc1nc(Nc2ccc(S(N)(=O)=O)cc2)ncc1C1CC1 (single isomer, unassigned) [Example 154a] |
| 10 to 100 | 10 to 100 | 10 to 100 | 100 to 1000 | < 10 | 10 to 100 | – | CS(=O)(=O)N1CCC(Nc2ncc(C(F)(F)F)c(OC3CCCCC3O)n2)CC1 (single isomer, unassigned) [Example 120a] |
| 100 to 1000 | 100 to 1000 | 10 to 100 | 100 to 1000 | < 10 | ≥ 1000 | – | CC1CCCC(O)C1Oc1nc(Nc2ccc(S(N)(=O)=O)cc2)ncc1C(F)(F)F (single isomer, unassigned) [Example 112a] |
| 100 to 1000 | 100 to 1000 | 10 to 100 | 100 to 1000 | < 10 | 100 to 1000 | – | [2H]C([2H])([2H])NS(=O)(=O)c1ccc(Nc2ncc(CC)c(OC3COCC3(C)O)n2)cc1 (single isomer, unassigned) [Example 150a] |
| 10 to 100 | 100 to 1000 | 10 to 100 | 10 to 100 | < 10 | ≥ 1000 | – | Cc1cccc(-c2nc(Nc3ccc(S(N)(=O)=O)cc3)ncc2C#N)c1 [Example 94] |
| 10 to 100 | 10 to 100 | 10 to 100 | 100 to 1000 | < 10 | 10 to 100 | – | CC1(O)COCCC1Oc1nc(NC2CCN(S(C)(=O)=O)CC2)ncc1C#N (single isomer, unassigned) [Example 45a] |

| IC50 [1] [nM] | IC50 [2] [nM] | IC50 [3] [nM] | IC50 [4] [nM] | IC50 [5] [nM] | IC50 [6] [nM] | selectivity over CDK1 ([5]; inhibiting CDK2 over CDK1) | Compound |
| --- | --- | --- | --- | --- | --- | --- | --- |
| < 10 | < 10 | < 10 | 10 to 100 | < 10 | 100 to 1000 | – | CC1(COc2nc(NC3CCN(S(=O)(=O)CCO)CC3)ncc2C#N)CCCC1 [Example 57] |
| 100 to 1000 | 100 to 1000 | 10 to 100 | 100 to 1000 | < 10 | 100 to 1000 | – | [2H]C([2H])([2H])NS(=O)(=O)c1ccc(Nc2ncc(C(F)(F)F)c(O[C@H]3CCOC[C@H]3O)n2)cc1 (single isomer, unassigned) [Example 100a, cis-4-((4-((3-hydroxytetrahydro-2H-pyran-4-yl)oxy)-5-(trifluoromethyl)pyrimidin-2-yl)amino)-N-(methyl-d3)benzenesulfonamide] |
| 10 to 100 | 10 to 100 | 10 to 100 | 100 to 1000 | < 10 | ≥ 1000 | more than 30 fold | N#Cc1cnc(Nc2ccc(S(N)(=O)=O)cc2)nc1OCC1CCC1 [Example 9] |
| 10 to 100 | 100 to 1000 | < 10 | 10 to 100 | < 10 | 100 to 1000 | – | CC(C)NS(=O)(=O)c1ccc(Nc2ncc(C(F)(F)F)c(OC3CCCC3O)n2)cc1 (single isomer, unassigned) [Example 106a] |
| < 10 | < 10 | < 10 | 100 to 1000 | < 10 | 10 to 100 | – | Cn1cc(S(=O)(=O)N2CCC(Nc3ncc(C#N)c(OC4CCCC4(C)O)n3)CC2)cn1 (single isomer, unassigned) [Example 48a] |
| 10 to 100 | 100 to 1000 | 10 to 100 | 100 to 1000 | < 10 | ≥ 1000 | – | N#Cc1cnc(Nc2ccc(S(=O)(=O)NC3CC(F)C3)cc2)nc1OC1CCCCC1O (single isomer, unassigned) [Example 31a] |
| 100 to 1000 | 100 to 1000 | 10 to 100 | 10 to 100 | < 10 | 100 to 1000 | – | NS(=O)(=O)c1ccc(Nc2ncc(C(F)(F)F)c(OC3CCOCC3O)n2)cc1 (single isomer, unassigned) [Example 114a] |
| 10 to 100 | 10 to 100 | 10 to 100 | 100 to 1000 | < 10 | 100 to 1000 | – | Cn1cc(S(=O)(=O)N2CCC(Nc3ncc(Br)c(OC4CCCCC4O)n3)CC2)cn1 (single isomer, unassigned) [Example 144b] |
| 100 to 1000 | 100 to 1000 | 10 to 100 | 100 to 1000 | < 10 | 100 to 1000 | – | [2H]C([2H])([2H])NS(=O)(=O)c1ccc(Nc2ncc(C(F)(F)F)c(OC3CCCC3O)n2)cc1 (single isomer, unassigned) [Example 109a] |
| 10 to 100 | 100 to 1000 | 10 to 100 | 100 to 1000 | < 10 | ≥ 1000 | – | [2H]C([2H])([2H])NS(=O)(=O)c1ccc(Nc2ncc(C#N)c(OC3CCCOCC3)n2)cc1 (single isomer, unassigned) [Example 33a] |
| < 10 | < 10 | < 10 | 10 to 100 | < 10 | < 10 | – | Cn1cc(S(=O)(=O)N2CCC(Nc3ncc(C(F)(F)F)c(OC4CCOCC4(C)O)n3)CC2)cn1 (single isomer, unassigned) [Example 125a] |
| ≥ 1000 | 100 to 1000 | 100 to 1000 | ≥ 1000 | < 10 | 100 to 1000 | – | [2H]C([2H])([2H])NS(=O)(=O)c1ccc(Nc2ncc(CC)c(OC3CCOCC3O)n2)cc1 (single isomer, unassigned) [Example 151a] |
| 10 to 100 | 10 to 100 | 10 to 100 | 10 to 100 | < 10 | ≥ 1000 | – | N#Cc1cnc(Nc2ccc(S(N)(=O)=O)cc2)nc1-c1cccc(O)c1 [Example 98] |
| 100 to 1000 | 100 to 1000 | ≥ 1000 | ≥ 1000 | 100 to 1000 | ≥ 1000 | – | CC1(O)CC(F)(F)CCC1Oc1nc(NC2CCN(S(C)(=O)=O)CC2)ncc1C#N (single isomer, unassigned) [Example 47b] |
| 100 to 1000 | 10 to 100 | 10 to 100 | 100 to 1000 | < 10 | 100 to 1000 | – | [2H]C1([2H])CC(O)C(Oc2nc(Nc3ccc(S(=O)(=O)NC([2H])([2H])[2H])cc3)ncc2C(F)(F)F)C1 (single isomer, unassigned) [Example 110a] |
| 10 to 100 | 10 to 100 | 10 to 100 | 100 to 1000 | < 10 | 100 to 1000 | – | CNS(=O)(=O)N1CCC(Nc2ncc(C(F)(F)F)c(OC3CCCCCC3O)n2)CC1 (single isomer, unassigned) [Example 123b] |
